Assay results: article PMC10958470 (Virus Research, 2024)
Entries after “also recorded” stand apart in the source; their conditions may differ. Read-outs that look alike come from different tables or passages of the source.

Columns and labels:
RdRp complex = RdRp complex (Severe acute respiratory syndrome coronavirus 2, UniProt P0DTD1); type: binding, SARS-CoV-2
SARS-CoV-2 helicase = SARS-CoV-2 helicase (Severe acute respiratory syndrome coronavirus 2, UniProt P0DTD1); type: binding
[1] = target: SARS-CoV-2 helicase (nsp13) (Severe acute respiratory syndrome coronavirus 2, UniProt P0DTD1); test: biochemical; type: biochemical; settings: for inhibition at 2.5 µM: read-out: DTT Helicase unwinding inhibition [%] 2.5 µM triplicates
[2] = target: SARS-CoV-2 nsp13 NTPase activity (Severe acute respiratory syndrome coronavirus 2, UniProt P0DTD1); test: biochemical; type: biochemical
[3] = target: SARS-CoV-2 RdRp nsp12/7/8 complex (Severe acute respiratory syndrome coronavirus 2, UniProt P0DTD1); test: biochemical; type: biochemical; settings: for IC50: RdRp IC50 [µM]; for inhibition at 20 µM: read-out: RdRp Inhibition [%] 20 µM (PS Inhibition RdRp [%])
GTPase dynamin = settings: read-out: IC50 GTPase dynamin; ref Medchemexpress, 2023; cited from earlier work
SARS-CoV-2 RdRp = settings: biochemical readout; ref Yin et al., 2021; cited from earlier work
[4] = read-out: Helicase Inhibition [%] 20 µM (PS Inhibition Helicase [%])

For `O=c1c(O)c(-c2cc(O)c(O)c(O)c2)oc2cc(O)cc(O)c12` [myricetin (cannabiscetin), myricetin], the “RdRp Tm °C 20 µM” value (RdRp complex) was 42.7 °C, the “RdRp Tm °C 100 µM” value (RdRp complex) was 43.6 °C and the “effect on RdRp melting temperature” value (RdRp complex) was “no shift in Tm”. The “Helicase Tm °C 20 µM” value (SARS-CoV-2 helicase) was 38.3 °C, the “Helicase Tm °C 100 µM” value (SARS-CoV-2 helicase) was 38.8 °C and the “effect on helicase Tm” value (SARS-CoV-2 helicase) was “did not result in a Tm change”. The “DTT nsp13 inhibition [%] 20 µM (DTT HC Helicase inhibition [%])” value [1] was 67.25%, the inhibition at 2.5 µM [1] was 22.1% and the inhibition at 20 µM ([1]; read-out: DTT nsp13 inhibition [%] 20 µM (DTT HC Helicase inhibition [%])) was greater than 50%. For the same compound, the inhibition at 20 µM [1, 4] was 100%, the “DTT Helicase ATPase activity PLUS DNA substrate 2 µM” value [2] was 77.50 and the “DTT Helicase ATPase activity [%] 2 µM” value [2] was 62.36%.
For `O=C(N/N=C/c1ccc(O)c(O)c1)c1cc2ccccc2cc1O` [dynasore], the “RdRp Tm °C 20 µM” value (RdRp complex) was 43.3 °C, the “RdRp Tm °C 100 µM” value (RdRp complex) was 44.5 °C and the “effect on RdRp melting temperature” value (RdRp complex) was “concentration-dependent protein stabilizing effect”. For the same compound, the “increase of Tm of RdRp” value (RdRp complex) was “about 1.5 K”, the “change of RdRp IC50 with increasing ATP concentration” value [3] was “did not detect any change” and the “change of RdRp IC50 with increasing oligo-U concentration” value [3] was “gain of potency in the presence of 3 µM oligo-U”. The IC50 [3] was 6.22 µM, the inhibition at 20 µM [3] was 96.1% and the IC50 (GTPase dynamin) was 15 µM. For the same compound, the inhibition at 20 µM [1, 4] was 7.02% and the “PicoGreen effect [%] 20 µM” value (annealed dsDNA substrate) was 6.63%.
In the case of `CC1=NN(c2ccc(C)c(C)c2)C(=O)/C1=N\Nc1cccc(-c2cccc(C(=O)O)c2)c1O` [eltrombopag olamine], the “RdRp Tm °C 20 µM” value (RdRp complex) is reported as 41.5 °C, the “RdRp Tm °C 100 µM” value (RdRp complex) is reported as 43.6 °C and the IC50 [3] is reported as 4.29 µM. For the same compound, the inhibition at 20 µM [3] was 95.2%, the inhibition at 20 µM [1, 4] was 3.09% and the “PicoGreen effect [%] 20 µM” value (annealed dsDNA substrate) was 21.05%.
For `Cc1ccc(C(=O)Nc2ccc(S(=O)(=O)O)c3cc(S(=O)(=O)O)cc(S(=O)(=O)O)c23)cc1NC(=O)c1cccc(NC(=O)Nc2cccc(C(=O)Nc3cc(C(=O)Nc4ccc(S(=O)(=O)O)c5cc(S(=O)(=O)O)cc(S(=O)(=O)O)c45)ccc3C)c2)c1` [suramin hexasodium], the “RdRp Tm °C 20 µM” value (RdRp complex) was 44.3 °C, the “RdRp Tm °C 100 µM” value (RdRp complex) was 46.6 °C and the “effect on RdRp melting temperature” value (RdRp complex) was “increase in melting temperature; also recorded: concentration-dependent protein stabilizing effect”. The “Helicase Tm °C 20 µM” value (SARS-CoV-2 helicase) was 36.8 °C, the “Helicase Tm °C 100 µM” value (SARS-CoV-2 helicase) was 36.5 °C and the “effect on helicase Tm” value (SARS-CoV-2 helicase) was “decrease in Tm”. For the same compound, the “RdRp Inhibition [%] 20 µM (PS Inhibition RdRp [%])” value [3] was 98.49%, the “change of RdRp IC50 with increasing ATP concentration” value [3] was “no changes in IC50” and the “change of RdRp IC50 with increasing oligo-U concentration” value [3] was “no changes in IC50”. For the same compound, the IC50 [3] was 0.24 µM, the “fold stronger inhibition of SARS-CoV-2 RdRp compared to Remdesivir” value (SARS-CoV-2 RdRp) was 20 fold and the “DTT nsp13 inhibition [%] 20 µM (DTT HC Helicase inhibition [%])” value [1] was 92.60%. The IC50 ([1]; DTT Helicase IC50 [µM]) was 5.42 µM, the inhibition at 2.5 µM [1] was 53.1% and the inhibition at 20 µM [1, 4] was 98%. For the same compound, the “DTT Helicase ATPase activity PLUS DNA substrate 2 µM” value [2] was 63.38, the “DTT Helicase ATPase activity [%] 2 µM” value [2] was 121.61% and the “inhibition of helicase NTPase activity, 2 mM DTT” value [2] was “only active in presence of dsDNA substrate”. For the same compound, the “inhibition of helicase NTPase activity, absence of DTT” value [2] was “showed inhibition in absence of DTT, independent of the presence of the dsDNA substrate”.
